Test system: not given
Experiment: not given

Q: Which melting point does the source give for `COc1ccc2nc(NC(=O)C(CC3CCCC3)c3ccc(S(=O)(=O)NCc4ccccc4F)cc3)sc2n1` (stereo not shown) [Example 21, 3-Cyclopentyl-2-[4-(2-fluoro-benzylsulfamoyl)-phenyl]-N-(5-methoxy-thiazolo[5,4-b]pyridin-2-yl)-propionamide] here?
A: 238 to 240 °C

Q: With `COc1ccc2nc(NC(=O)C(CC3CCCC3)c3ccc(S(=O)(=O)NCc4ccccc4)cc3)sc2n1` (stereo not shown) [Example 23, 2-(4-Benzylsulfamoyl-phenyl)-3-cyclopentyl-N-(5-methoxy-thiazolo[5,4-b]pyridin-2-yl)-propionamide] as the molecule, how does the melting point read?
A: 237 to 240 °C

Q: With `COc1ccc2nc(NC(=O)C(CC3CCCC3)c3ccc(S(=O)(=O)Nc4ccccc4)cc3)sc2n1` (stereo not shown) [Example 7, 3-Cyclopentyl-N-(5-methoxy-thiazolo[5,4-b]pyridin-2-yl)-2-(4-phenylsulfamoyl-phenyl)-propionamide] as the molecule, how does the melting point read?
A: 223 to 226 °C

Q: Which melting point does the source give for `CCN(CC)S(=O)(=O)c1ccc(C(CC2CCCC2)C(=O)Nc2nc3ccc(OC)nc3s2)cc1` (stereo not shown) [Example 13, 3-Cyclopentyl-2-(4-diethylsulfamoyl-phenyl)-N-(5-methoxy-thiazolo[5,4-b]pyridin-2-yl)-propionamide] here?
A: 150 to 152 °C

Q: With `COc1ccc2nc(NC(=O)C(CC3CCCC3)c3ccc(S(=O)(=O)N(C)Cc4ccccc4)cc3)sc2n1` (stereo not shown) [Example 24, 2-[4-(Benzyl-methyl-sulfamoyl)-phenyl]-3-cyclopentyl-N-(5-methoxy-thiazolo[5,4-b]pyridin-2-yl)-propionamide] as the molecule, how does the melting point read?
A: 206 to 208 °C

Q: Which melting point does the source give for `COc1ccc2nc(NC(=O)C(CC3CCCC3)c3ccc(S(=O)(=O)N(C(C)C)C(C)C)cc3)sc2n1` (stereo not shown) [Example 9, 3-Cyclopentyl-2-(4-diisopropylsulfamoyl-phenyl)-N-(5-methoxy-thiazolo[5,4-b]pyridin-2-yl)-propionamide] here?
A: 83 to 85 °C

Q: For `CCN1CCN(S(=O)(=O)c2ccc(C(CC3CCCC3)C(=O)Nc3nc4ccc(OC)nc4s3)cc2)CC1` (stereo not shown) [Example 26, 3-Cyclopentyl-2-[4-(4-ethyl-piperazine-1-sulfonyl)-phenyl]-N-(5-methoxy-thiazolo[5,4-b]pyridin-2-yl)-propionamide], which melting point is on record?
A: 106 to 110 °C

Q: For `COc1ccc2nc(NC(=O)C(CC3CCCC3)c3ccc(S(=O)(=O)N(C)C)cc3)sc2n1` (stereo not shown) [Example 12, 3-Cyclopentyl-2-(4-dimethylsulfamoyl-phenyl)-N-(5-methoxy-thiazolo[5,4-b]pyridin-2-yl)-propionamide], which melting point is on record?
A: 229 to 234 °C

Q: Which melting point does the source give for `COc1ccc2nc(NC(=O)C(CC3CCCC3)c3ccc(S(=O)(=O)N4CCOCC4)cc3)sc2n1` (stereo not shown) [Example 18, 3-Cyclopentyl-N-(5-methoxy-thiazolo[5,4-b]pyridin-2-yl)-2-[4-(morpholine-4-sulfonyl)-phenyl]-propionamide] here?
A: 120 to 123 °C

Q: Which melting point does the source give for `CCCCN(CCCC)S(=O)(=O)c1ccc(C(CC2CCCC2)C(=O)Nc2nc3ccc(OC)nc3s2)cc1` (stereo not shown) [Example 25, 3-Cyclopentyl-2-(4-dibutylsulfamoyl-phenyl)-N-(5-methoxy-thiazolo[5,4-b]pyridin-2-yl)-propionamide] here?
A: 65 to 67 °C

Q: For `COc1ccc2nc(NC(=O)C(CC3CCCC3)c3ccc(S(=O)(=O)NCc4cccs4)cc3)sc2n1` (stereo not shown) [Example 19, 3-Cyclopentyl-N-(5-methoxy-thiazolo[5,4-b]pyridin-2-yl)-2-{4-[(thiophen-2-ylmethyl)-sulfamoyl]-phenyl}-propionamide], which melting point is on record?
A: 263 to 268 °C

Q: With `COc1ccc2nc(NC(=O)C(CC3CCCC3)c3ccc(S(=O)(=O)N4CCN(C(C)=O)CC4)cc3)sc2n1` (stereo not shown) [Example 27, 2-[4-(4-Acetyl-piperazine-1-sulfonyl)-phenyl]-3-cyclopentyl-N-(5-methoxy-thiazolo[5,4-b]pyridin-2-yl)-propionamide] as the molecule, how does the melting point read?
A: 215 to 217 °C

Q: With `CCCN(c1ccccc1)S(=O)(=O)c1ccc(C(CC2CCCC2)C(=O)Nc2nc3ccc(OC)nc3s2)cc1` (stereo not shown) [Example 11, 3-Cyclopentyl-N-(5-methoxy-thiazolo[5,4-b]pyridin-2-yl)-2-[4-(phenyl-propyl-sulfamoyl)-phenyl]-propionamide] as the molecule, how does the melting point read?
A: 83 to 85 °C

Q: For `COc1ccc2nc(NC(=O)C(CC3CCCC3)c3ccc(S(=O)(=O)NCc4cccnc4)cc3)sc2n1` (stereo not shown) [Example 15, 3-Cyclopentyl-N-(5-methoxy-thiazolo[5,4-b]pyridin-2-yl)-2-{4-[(pyridin-3-ylmethyl)-sulfamoyl]-phenyl}-propionamide], which melting point is on record?
A: 227 to 229 °C

Q: For `COc1ccc2nc(NC(=O)C(CC3CCCC3)c3ccc(S(=O)(=O)NCc4ccco4)cc3)sc2n1` (stereo not shown) [Example 10, 3-Cyclopentyl-2-{4-[(furan-2-ylmethyl)-sulfamoyl]-phenyl}-N-(5-methoxy-thiazolo[5,4-b]pyridin-2-yl)-propionamide], which melting point is on record?
A: 244 to 247 °C

Q: With `COc1cccc(CNS(=O)(=O)c2ccc(C(CC3CCCC3)C(=O)Nc3nc4ccc(OC)nc4s3)cc2)c1` (stereo not shown) [Example 6, 3-Cyclopentyl-2-[4-(3-methoxy-benzylsulfamoyl)-phenyl]-N-(5-methoxy-thiazolo[5,4-b]pyridin-2-yl)-propionamide] as the molecule, how does the melting point read?
A: 179 to 181 °C

Q: For `COCCNS(=O)(=O)c1ccc(C(CC2CCCC2)C(=O)Nc2nc3ccc(OC)nc3s2)cc1` (stereo not shown) [Example 5, 3-Cyclopentyl-2-[4-(2-methoxy-ethylsulfamoyl)-phenyl]-N-(5-methoxy-thiazolo[5,4-b]pyridin-2-yl)-propionamide], which melting point is on record?
A: 209 to 211 °C

Q: With `COc1ccc2nc(NC(=O)C(CC3CCCC3)c3ccc(S(=O)(=O)NC4CC4)cc3)sc2n1` (stereo not shown) [Example 4, 3-Cyclopentyl-2-(4-cyclopropylsulfamoyl-phenyl)-N-(5-methoxy-thiazolo[5,4-b]pyridin-2-yl)-propionamide] as the molecule, how does the melting point read?
A: 235 to 237 °C

Q: Which melting point does the source give for `COc1ccc2nc(NC(=O)C(CC3CCCC3)c3ccc(S(=O)(=O)N4CCCCC4)cc3)sc2n1` (stereo not shown) [Example 17, 3-Cyclopentyl-N-(5-methoxy-thiazolo[5,4-b]pyridin-2-yl)-2-[4-(piperidine-1-sulfonyl)-phenyl]-propionamide] here?
A: 184 to 218 °C

Q: Which melting point does the source give for `CCCN(CCC)S(=O)(=O)c1ccc(C(CC2CCCC2)C(=O)Nc2nc3ccc(OC)nc3s2)cc1` (stereo not shown) [Example 14, 3-Cyclopentyl-2-(4-dipropylsulfamoyl-phenyl)-N-(5-methoxy-thiazolo[5,4-b]pyridin-2-yl)-propionamide] here?
A: 64 to 66 °C

Q: Which melting point does the source give for `COc1ccc2nc(NC(=O)C(CC3CCCC3)c3ccc(S(=O)(=O)Nc4cccnc4)cc3)sc2n1` (stereo not shown) [Example 20, 3-Cyclopentyl-N-(5-methoxy-thiazolo[5,4-b]pyridin-2-yl)-2-[4-(pyridin-3-ylsulfamoyl)-phenyl]-propionamide] here?
A: 125 to 127 °C

Target: T1, recombinant GST-GK (Homo sapiens, UniProt P35557)
T1 sequence (P35557 1-465): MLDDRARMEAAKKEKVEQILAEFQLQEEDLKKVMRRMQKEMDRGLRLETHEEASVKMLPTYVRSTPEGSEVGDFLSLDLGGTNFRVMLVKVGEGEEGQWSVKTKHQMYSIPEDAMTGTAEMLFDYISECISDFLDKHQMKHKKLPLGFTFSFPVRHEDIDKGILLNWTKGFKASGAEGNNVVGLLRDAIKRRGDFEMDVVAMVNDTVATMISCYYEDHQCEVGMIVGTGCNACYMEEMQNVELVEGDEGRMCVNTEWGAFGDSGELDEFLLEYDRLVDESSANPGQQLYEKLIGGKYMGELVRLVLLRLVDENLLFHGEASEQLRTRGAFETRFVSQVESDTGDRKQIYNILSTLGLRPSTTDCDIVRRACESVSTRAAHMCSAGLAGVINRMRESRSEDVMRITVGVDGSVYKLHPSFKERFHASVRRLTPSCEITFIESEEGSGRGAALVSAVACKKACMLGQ
Experiment: in vitro assay measuring the activation of recombinant GST-GK
Assay type: biochemical
Source text: The glucokinase activation in vitro may be determined by measuring the activation of recombinant GST-GK by a compound of the present invention in the absence or the presence of GKRP, a 68,000 Da protein inhibitor of GK. In these assays, formation of glucose-6-phosphate is coupled directly to the formation of thioNADH. GST-GK catalyzes the reaction of glucose and Mg-ATP to produce glucose-6-phosphate and ADP. Glucose-6-phosphate dehydrogenase (G6PDH) reduces thionicotinamide (thioNAD) to thioNADH. The assay measures the formation of […] at 405 nM.
The basic GK assay components are as follows: 25 mM HEPES (pH 7.1), 25 mM KCl, 2.5 mM MgCl2, 1 mM ATP (Sigma A-5394), 1 mM DTT, 1 mM thioNAD (Sigma T-7375), 80 units/mL G6PDH (Sigma G-5885), 10 mM glucose and […] GST-GK (110 nM). For assessing reversal of GK inhibition by GKRP, 20 μM Fructose-1-phosphate ([…]) and 25 μg/mL of recombinant GKRP (370 nM) are added to these assay components. F-1-P at 1 μM is used as a control in the GK/GKRP assay. F-1-P reverses inhibition of GST-GK by GKRP.
The assay is done in standard, 96-well, round-bottom plates and the total assay volume is 25 μL. […] The plates are then delivered via the Zymark XP arm to a Thermomax plate reader and read kinetically over three min at 405 nM at RT. Units are expressed as milli-optical density per minute (mOD/min).

Q: With `COc1ccc2nc(NC(=O)C(CC3CCCC3)c3ccc(S(=O)(=O)N4CCN(C)CC4)cc3)sc2n1` (stereo not shown) [Example 1, 3-Cyclopentyl-N-(5-methoxy-thiazolo[5,4-b]pyridin-2-yl)-2-[4-(4-methyl-piperazine-1-sulfonyl)-phenyl]-propionamide] as the molecule, how does the EC50 read?
A: ~251 nM
